In patent US5605929A, “Methods and compositions for inhibiting 5α-reductase activity” (priority 1995, dated 1997):

How the values were obtained:
[1] = system: human liver microsomes 5α-reductase; settings: vs rat liver microsomes
Method: Briefly, the binding assay solution, in a final volume of 0.15 ml, contained microsomes (2-20 μg of protein), 0.08 μCi of [^3 H]4-MA, 0.1 mM-NADPH, 1 mM-dithiothreitol and 50 mM-potassium phosphate, pH 7.0, with or without the indicated amount of a lipid or an inhibitor preparation. Lipids were dissolved in ethanol and added in 1-5 μl volumes. Control tubes received the same amount of ethanol. After incubation at 0° C. for 1 h, the [^3 H]4-MA bound to microsomes was determined by collecting microsomes on a Whatman GF/1F glass fibre filter and washing with 10 ml of 20 mM-potassium phosphate, pH 7.0, containing 0.01% CHAPS to remove unbound [^3 H]4-MA.
Microsomes were prepared at 4° C. from a buffered 0.32M-sucrose homogenate of human liver and from the livers of adult Sprague-Dawley female rats by differential centrifugation as described previously (Liang et al., 1990), and were used in the assay of 5α-reductase activity. In some experiments, microsomes were solubilized with 0.1% polyoxyethylene ether W-1 as described previously (Liang et al., 1990), except for the substitution of polyoxyethylene ether W-1 for Lubrol-WX.

[2] = system: UDP-glucuronic acid:5α-DHT glucuronosyl transferase; settings: 10 to 40 μM
[3] = molecular target: T1, human 5α-reductase isozyme type 2 (Homo sapiens, UniProt P31213); assay: [3H]4-MA binding, human type 2 isozyme expressed in Rat-1A cells; settings: read-out: % Inhibition of [^3 H]4-MA binding
T1 construct: expressed in transfected cells; host or cells: Rat-1A cells infected with pMV7 retrovirus; microsomes of these cells
T1 sequence (P31213 1-254): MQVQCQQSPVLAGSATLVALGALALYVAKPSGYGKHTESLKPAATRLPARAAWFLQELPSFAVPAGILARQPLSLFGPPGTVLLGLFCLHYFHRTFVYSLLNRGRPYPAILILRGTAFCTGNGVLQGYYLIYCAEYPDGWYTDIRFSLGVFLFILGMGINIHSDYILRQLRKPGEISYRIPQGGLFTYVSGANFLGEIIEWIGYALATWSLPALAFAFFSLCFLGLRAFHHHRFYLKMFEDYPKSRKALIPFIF
Description: (§1) The cDNAs for the human type 1 and 2 5α-reductases were isolated from human prostate λZAP II™ cDNA libraries using the published sequence of the 5α-reductases, PCR™ and standard library screening techniques (Sambrook et al., 1989). The type 1 and 2 cDNAs correspond to nucleotides 31-870 and 28-829, respectively, of the published sequences for these 5α-reductases (Anderson and Russell, 1990; Anderson et al., 1991). The type 1 and 2 cDNAs were subcloned into the retroviral expression vector pMV7 (Kirschmeier et al., 1988) and high titer stocks of virus containing the type 1 and 2 cDNAs were generated using the packaging cells BOSC 23 293 (Kirschmeier et al., 1988). Rat.-1A cells (Pear et al., 1993) were infected with virus (Topp, 1981) and cells containing integrated retrovirus were selected for G418-SO4 resistance, (Brown and Scott, 1987).
(§2) Microsomes were prepared as described previously (Liang and Liao, 1992) from the liver of adult Sprague-Dawley female rats or Rat-1A cells expressing a specific type of human 5α-reductase. […] The data presented was based on the rate of reaction.
(§3) [^3 H]4-MA binding assay were described in detail previously (Liang and Liao, 1992; Liang et al., 1983). […] The reaction was started by the addition of 25 μl of microsomes (25 μg protein). After 30-60 min incubation at 0° C., the [^3 H]4-MA bound to microsomes was collected on a Whatman GF/F glass fiber, washed and radioactivity determined (Liang and Liao, 1992).

[4] = system: 17β-steroid dehydrogenase; assay: 4-Androstenedione formation from [3H]testosterone by PC-3 cells (17β-steroid dehydrogenase); assay type: cell-based, human
[5] = molecular target: T2, human 5α-reductase isozyme type 1 (Homo sapiens, UniProt P18405); assay: [3H]4-MA binding, human type 1 isozyme expressed in Rat-1A cells; settings: read-out: % Inhibition of [^3 H]4-MA binding
T2 construct: expressed in transfected cells; host or cells: Rat-1A cells infected with pMV7 retrovirus; microsomes of these cells
T2 sequence (P18405 1-259): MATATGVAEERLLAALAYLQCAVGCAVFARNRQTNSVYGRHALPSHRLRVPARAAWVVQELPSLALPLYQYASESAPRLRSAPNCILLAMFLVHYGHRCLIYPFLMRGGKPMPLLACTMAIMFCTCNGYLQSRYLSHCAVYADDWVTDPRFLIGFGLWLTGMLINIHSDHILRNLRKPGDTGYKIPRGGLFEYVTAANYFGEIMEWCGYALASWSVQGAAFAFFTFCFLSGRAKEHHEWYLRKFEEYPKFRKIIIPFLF
Description: as §1, §2, §3

[6] = system: human prostate cancer (PC3 and LNCaP) cells; assay: 5α-reduction of testosterone by human prostate cancer cells; assay type: cell-based
[7] = molecular target: T2, human 5α-reductase isozyme type 1; assay: 4-[14C]testosterone reduction, human type 1 isozyme; assay type: biochemical; settings: read-out: % Inhibition of 5α-reduction
Description: as §1, §2
(§4) The reaction was started by the addition of 25 μl of microsomes (25 μg protein). The mixture was incubated at 37° for 30-60 min and stopped by addition of 0.5 ml of ethyl acetate and mixing for 1 min. The organic solvent extract was removed under vacuum.

[8] = molecular target: T1, human 5α-reductase isozyme type 2; assay: 4-[14C]testosterone reduction, human type 2 isozyme; assay type: biochemical; settings: for inhibition at 1 µM / inhibition at 3 µM / inhibition at 10 µM / inhibition at 30 µM / inhibition at 100 µM: read-out: % Inhibition of 5α-reduction
Description: as §1, §2, §4

[9] = system: NADH:menadione reductase; settings: 10 to 40 μM
[10] = system: ventral prostate and preputial organ
Description: Male Sprague-Dawley rats, 60±5 g body weight, were used. Each group had 6 rats, and all were castrated.

[11] = molecular target: T3, rat small intestinal sucrase (Rattus norvegicus, UniProt P23739); settings: cited from earlier work
T3 construct: rat small intestinal sucrase and maltase; host or cells: rat small intestine
T3 sequence (P23739 1014-1841 limits assumed): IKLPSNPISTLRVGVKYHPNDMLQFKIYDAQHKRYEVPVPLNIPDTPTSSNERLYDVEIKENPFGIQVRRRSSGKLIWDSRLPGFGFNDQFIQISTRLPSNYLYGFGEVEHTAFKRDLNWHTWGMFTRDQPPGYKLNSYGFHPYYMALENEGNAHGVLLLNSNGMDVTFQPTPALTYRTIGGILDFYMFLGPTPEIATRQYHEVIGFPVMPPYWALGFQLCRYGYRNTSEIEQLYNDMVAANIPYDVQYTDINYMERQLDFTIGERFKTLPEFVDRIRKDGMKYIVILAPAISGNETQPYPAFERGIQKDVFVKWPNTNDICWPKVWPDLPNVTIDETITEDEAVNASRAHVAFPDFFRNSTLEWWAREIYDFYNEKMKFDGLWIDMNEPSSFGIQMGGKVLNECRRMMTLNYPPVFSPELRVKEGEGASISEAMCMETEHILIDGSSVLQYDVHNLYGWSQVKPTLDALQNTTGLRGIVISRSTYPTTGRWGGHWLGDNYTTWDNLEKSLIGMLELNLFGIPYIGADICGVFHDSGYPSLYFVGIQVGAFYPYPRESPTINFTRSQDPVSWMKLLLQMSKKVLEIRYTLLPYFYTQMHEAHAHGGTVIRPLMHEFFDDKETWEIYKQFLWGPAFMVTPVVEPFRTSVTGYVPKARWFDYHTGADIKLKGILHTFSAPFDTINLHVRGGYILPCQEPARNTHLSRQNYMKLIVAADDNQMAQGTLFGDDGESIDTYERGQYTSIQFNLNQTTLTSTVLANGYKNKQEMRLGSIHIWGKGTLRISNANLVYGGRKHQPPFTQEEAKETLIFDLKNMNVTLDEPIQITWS
T3 sequence (P23739 2-1013 partner limits assumed): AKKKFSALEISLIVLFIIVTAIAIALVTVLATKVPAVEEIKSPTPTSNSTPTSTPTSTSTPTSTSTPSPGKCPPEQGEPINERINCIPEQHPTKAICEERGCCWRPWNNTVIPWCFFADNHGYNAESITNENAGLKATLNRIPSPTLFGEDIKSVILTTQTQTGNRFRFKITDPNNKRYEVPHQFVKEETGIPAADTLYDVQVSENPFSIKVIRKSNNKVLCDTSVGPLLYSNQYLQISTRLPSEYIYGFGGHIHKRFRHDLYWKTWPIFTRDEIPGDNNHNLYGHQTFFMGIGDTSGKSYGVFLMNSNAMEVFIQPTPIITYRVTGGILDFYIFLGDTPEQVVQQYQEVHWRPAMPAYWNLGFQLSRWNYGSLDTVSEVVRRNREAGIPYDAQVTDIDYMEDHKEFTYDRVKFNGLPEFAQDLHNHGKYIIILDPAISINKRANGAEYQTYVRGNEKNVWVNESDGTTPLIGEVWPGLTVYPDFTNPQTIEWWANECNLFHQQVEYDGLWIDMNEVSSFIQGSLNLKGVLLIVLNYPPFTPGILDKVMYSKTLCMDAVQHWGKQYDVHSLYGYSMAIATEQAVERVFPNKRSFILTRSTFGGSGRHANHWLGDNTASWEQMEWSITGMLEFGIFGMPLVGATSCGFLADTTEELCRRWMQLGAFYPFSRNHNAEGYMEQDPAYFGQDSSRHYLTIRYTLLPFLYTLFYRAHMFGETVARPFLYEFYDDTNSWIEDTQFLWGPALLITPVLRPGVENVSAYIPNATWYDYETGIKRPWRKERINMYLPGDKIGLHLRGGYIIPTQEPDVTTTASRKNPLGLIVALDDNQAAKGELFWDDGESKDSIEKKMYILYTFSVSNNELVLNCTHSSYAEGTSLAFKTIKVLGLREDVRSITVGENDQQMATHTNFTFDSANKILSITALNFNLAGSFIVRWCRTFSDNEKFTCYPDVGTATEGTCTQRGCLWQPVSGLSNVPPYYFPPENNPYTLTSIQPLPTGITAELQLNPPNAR

[12] = system: prostate and preputial glands; assay: EGCG ip 7 days, normal and castrated rats with androgen; assay type: in vivo, rat; settings: for prostate weight reduction: 5 mg/day
Method: Male Sprague-Dawley rats, 60±5 g body weight, were used. Rats were divided into 6 groups. Each group had 5 rats. Groups 1 and 2 were normal rats while the other 4 groups had rats castrated on the first day. […] The control rats (Group 1) received 0.1 ml of 30% ethanol.

[13] = molecular target: rat small intestinal maltase; settings: cited from earlier work

With CCCCC/C=C\C/C=C\C/C=C\CCCCC(=O)O [γ-Linolenic acid, γ-linolenic acid] the “inhibition of NADPH-dependent [^3 H]4-MA binding” value [1] was “to the same degree as in experiments with rat liver microsomes”, the “effect on UDP-glucuronic acid:5α-DHT glucuronosyl transferase” value [2] was “did not affect” and the inhibition at 1 µM [3] was 22%. For the same compound, the inhibition at 3 µM [3] was 49%, the inhibition at 10 µM [3] was 63% and the inhibition at 30 µM [3] was 72%. For the same compound, the inhibition at 100 µM [3] was 88%, the “4-Androstendione formed (% of control)” value ([4]; 1 μM) was 102 ± 6 % of control and the “4-Androstendione formed (% of control)” value ([4]; 5 μM) was 110 ± 1 % of control. The “4-Androstendione formed (% of control)” value ([4]; 20 μM) was 99 ± 2 % of control, the “effect on metabolism of testosterone to 4-androstenedione (17β-steroid dehydrogenase)” value ([4]; words) was “did not affect” and the inhibition at 1 µM [5] was 20%. For the same compound, the inhibition at 3 µM [5] was 54%, the inhibition at 10 µM [5] was 65% and the inhibition at 30 µM [5] was 79%. The inhibition at 100 µM [5] was 85%, the “5α-DHT production by human prostate cancer cells” value [6] was “can inhibit the conversion of testosterone to 5α-DHT” and the IC50 ([6]; Homo sapiens, LNCaP, read-out: IC50 with the prostate cancer cells) was 10 ± 5 µM. It also gave an inhibition at 1 µM [7] of 31%, an inhibition at 3 µM [7] of 52% and an inhibition at 10 µM [7] of 89%. It also gave an inhibition at 30 µM [7] of 99%, an inhibition at 1 µM [8] of 30% and an inhibition at 3 µM [8] of 48%. The inhibition at 10 µM [8] was 60%, the inhibition at 30 µM [8] was 88% and the inhibition at 100 µM [8] was 99%. For the same compound, the “effect on NADH:menadione reductase” value [9] was “did not affect”, the “effect on body weight increase” value ([10]; 5 mg ip daily, 14 days) was “not EC or γ-LA” and the “reduction of weights of ventral prostate and preputial organ” value ([10]; 5 mg ip daily, 14 days) was 10 to 35%. The “general health / organ appearance” value ([10]; rat, in vivo) was “appeared to be as healthy as rats in other groups”.
In the case of O=C(O[C@@H]1Cc2c(O)cc(O)cc2O[C@@H]1c1cc(O)c(O)c(O)c1)c1cc(O)c(O)c(O)c1 [EGCG, (-)Epigallocatechin-3-gallate], the IC50 [11] is listed as 50 to 500 µM, the inhibition at 1 µM [3] is listed as less than 10% and the inhibition at 3 µM [3] is listed as 12%. It also gave an inhibition at 10 µM [3] of 55%, an inhibition at 30 µM [3] of 72% and an inhibition at 100 µM [3] of 89%. For the same compound, the “prostate weight reduction” value ([12]; castrated + 5α-DHT) was “no reduction”, the prostate weight reduction ([12]; castrated + testosterone) was “about 23%” and the body weight reduction ([12]; normal and castrated rats with testosterone or 5α-DHT, 7 days) was 8±1%. The prostate weight reduction ([12]; normal rats) was “about 30%”, the “pathology examination of organs and blood” value ([12]; rat, in vivo) was “did not reveal any abnormal growth or pathogenic effects” and the inhibition at 1 µM [5] was 29%. The inhibition at 3 µM [5] was 47%, the inhibition at 10 µM [5] was 77% and the inhibition at 30 µM [5] was 88%. For the same compound, the inhibition at 100 µM [5] was 86%, the “5α-DHT production by human prostate cancer cells” value [6] was “reduced 5α-DHT production” and the inhibition at 1 µM [7] was 22%. The inhibition at 3 µM [7] was 23%, the inhibition at 10 µM [7] was 34% and the inhibition at 30 µM [7] was 89%. The inhibition at 100 µM [7] was 98%, the “activity on type 2 isozyme” value ([8]; enzymatic assay, concentrations below 30 μM for ECG/EGCG) was “did not inhibit the Type 2 isozyme” and the inhibition at 1 µM [8] was less than 10%. For the same compound, the inhibition at 3 µM [8] was less than 10%, the inhibition at 10 µM [8] was less than 10% and the inhibition at 30 µM [8] was less than 10%. The inhibition at 100 µM [8] was 73%, the IC50 [13] was 50 to 500 µM and the “reduction of body weight increase” value ([10]; 5 mg ip daily, 14 days) was “about 35%”. The “reduction of weights of ventral prostate and preputial organ” value ([10]; 5 mg ip daily, 14 days) was 10 to 35%, the “fat content under the skin” value ([10]; rat, in vivo) was “appeared less” and the “general health / organ appearance” value ([10]; rat, in vivo) was “appeared to be as healthy as rats in other groups”.
